Results as given in US11034699B2, “Ethynyl derivatives” (Hoffmann-La Roche Inc., priority 2015, dated 2021).
Each block holds one compound with its values, some of them ahead of it.

Columns and labels:
[1] = system: rats; conditions: cited from earlier work
[2] = system: mice; conditions: cited from earlier work
[3] = system: mice; conditions: cited from earlier work; remark: listed apart in the source
[4] = biological target: human mGlu4 receptor (Homo sapiens (Human), UniProt Q14833); assay: Ca2+ mobilization in vitro assay on recombinant human mGlu4 expressed in HEK293 cells (PAM); format: cell-based; conditions: for Emax: HEK293, maximal response in % of maximal stimulatory effect of saturating L-AP4, read-out: Eff. (%); for EC50: HEK293 cells, human mGlu4, L-AP4 at EC20
Procedure: Determination of EC50 Values Using a Ca2+ Mobilization In Vitro Assay on Recombinant Human mGlu4 Expressed in HEK293 Cells:
A monoclonal HEK-293 cell line stably transfected with a cDNA encoding for the human mGlu4 receptor was generated; for the work with mGlu4 Positive Allosteric Modulators (PAMs), a cell line with low receptor expression levels and low constitutive receptor activity was selected to allow the differentiation of agonistic versus PAM activity. Cells were cultured according to standard protocols (Freshney, 2000) in Dulbecco's Modified Eagle Medium with high glucose supplemented with 1 mM glutamine, 10% (vol/vol) heat-inactivated bovine calf serum, Penicillin/Streptomycin, 50 μg/ml hygromycin and 15 μg/ml blasticidin (all cell culture reagents and antibiotics from Invitrogen, Basel, Switzerland).
About 24 hrs before an experiment, 5×10^4 cells/well were seeded in poly-D-lysine coated, black/clear-bottomed 96-well plates. The cells were loaded with 2.5 μM Fluo-4AM in loading buffer (1×HBSS, 20 mM HEPES) for 1 hr at 37° C. and washed five times with loading buffer. The cells were transferred into a Functional Drug Screening System 7000 (Hamamatsu, Paris, France), and 11 half logarithmic serial dilutions of test compound at 37° C. were added and the cells were incubated for 10-30 min. with on-line recording of fluorescence. Following this pre-incubation step, the agonist (2S)-2-amino-4-phosphonobutanoic acid (L-AP4) was added to the cells at a concentration corresponding to EC20 with on-line recording of fluorescence; in order to account for day-to-day variations in the responsiveness of cells, the EC20 of L-AP4 was determined immediately ahead of each experiment by recording of a full dose-response curve of L-AP4.
Responses were measured as peak increase in fluorescence minus basal (i.e. fluorescence without addition of L-AP4), normalized to the maximal stimulatory effect obtained with saturating concentrations of L-AP4. Graphs were plotted with the % maximal stimulatory using XLfit, a curve fitting program that iteratively plots the data using Levenburg Marquardt algorithm. The single site competition analysis equation used was y=A+((B−A)/(1+((x/C)D))), where y is the % maximal stimulatory effect, A is the minimum y, B is the maximum y, C is the EC50, x is the log 10 of the concentration of the competing compound and D is the slope of the curve (the Hill Coefficient). From these curves the EC50 (drug concentration at which 50% of the maximal receptor activation was achieved), the Hill coefficient as well as the maximal response in % of the maximal stimulatory effect obtained with saturating concentrations of L-AP4 were calculated (see FIG. 1).
A depression of the signal observed after addition of the EC20 concentration of L-AP4 was indicative of an inhibitory activity of the test compound.

[5] = system: mice; conditions: mice treated with MPTP; cited from earlier work
[6] = system: rodent; conditions: 6-OHDA rodent model of PD; cited from earlier work

human mGlu4 receptor, sequence (Q14833 33-912): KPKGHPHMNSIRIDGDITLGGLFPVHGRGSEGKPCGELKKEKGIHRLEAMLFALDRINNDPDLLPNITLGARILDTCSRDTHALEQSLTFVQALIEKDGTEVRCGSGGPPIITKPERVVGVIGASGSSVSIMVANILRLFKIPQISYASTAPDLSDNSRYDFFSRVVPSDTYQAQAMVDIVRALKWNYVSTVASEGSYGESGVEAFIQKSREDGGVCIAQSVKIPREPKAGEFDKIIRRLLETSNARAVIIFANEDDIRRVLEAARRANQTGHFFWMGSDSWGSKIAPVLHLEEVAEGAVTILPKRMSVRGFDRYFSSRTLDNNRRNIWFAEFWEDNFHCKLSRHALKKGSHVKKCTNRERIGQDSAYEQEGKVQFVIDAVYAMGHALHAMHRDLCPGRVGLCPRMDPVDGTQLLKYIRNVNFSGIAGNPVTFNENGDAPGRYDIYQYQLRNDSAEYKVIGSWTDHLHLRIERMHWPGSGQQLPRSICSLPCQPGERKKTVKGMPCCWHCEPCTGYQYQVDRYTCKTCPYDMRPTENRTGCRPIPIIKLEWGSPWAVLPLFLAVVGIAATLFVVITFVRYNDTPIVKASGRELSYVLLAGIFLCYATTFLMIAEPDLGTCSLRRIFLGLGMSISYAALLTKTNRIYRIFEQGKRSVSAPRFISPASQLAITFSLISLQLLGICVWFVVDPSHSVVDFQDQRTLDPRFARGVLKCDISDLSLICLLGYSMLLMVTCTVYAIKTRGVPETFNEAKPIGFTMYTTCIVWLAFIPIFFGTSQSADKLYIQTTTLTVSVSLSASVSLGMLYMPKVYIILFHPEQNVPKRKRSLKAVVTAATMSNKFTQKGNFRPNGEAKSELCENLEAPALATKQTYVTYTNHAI

SMILES: Cc1ccnc(Nc2nc(-c3cn[nH]c3)c(C)s2)n1 [ADX88178]
profile in the rat EPM test ([1]; rat, after oral dosing): anxiolytic-like profile
activity in EPM ([1]; rats): active
activity in marble burying test [2]: active
activity in EPM [3]: active

SMILES: CN1C(=O)N(c2c(F)cc(C#Cc3cccnc3)cc2F)C(=O)C[C@]12CCOc1ccccc12 [Example 8, (4S)-3′-[2,6-Difluoro-4-[2-(3-pyridyl)ethynyl]phenyl]-1′-methyl-spiro[chromane-4,6′-hexahydropyrimidine]-2′,4′-dione]
Emax [4]: 145%
EC50 [4]: 88 nM

SMILES: CN1C(=O)N(c2c(F)cc(C#Cc3ccccc3)cc2F)C(=O)C[C@]12CCCc1ccncc12 [Example 1, (8S)-3′-[2,6-Difluoro-4-(2-phenylethynyl)phenyl]-1′-methyl-spiro[6,7-dihydro-5H-isoquinoline-8,6′-hexahydropyrimidine]-2′,4′-dione]
Emax [4]: 101%
EC50 [4]: 58 nM

SMILES: CCN1C(=O)N(c2c(F)cc(C#Cc3ccccc3)cc2F)C(=O)C[C@]12CCCc1ccncc12 [Example 11, (8S)-3′-[2,6-Difluoro-4-(2-phenylethynyl)phenyl]-1′-ethyl-spiro[6,7-dihydro-5H-isoquinoline-8,6′-hexahydropyrimidine]-2′,4′-dione]
Emax [4]: 130%
EC50 [4]: 114 nM

SMILES: CN1C(=O)N(c2c(F)cc(C#Cc3cccnc3)cc2F)C(=O)C[C@]12CCCc1ccccc12 [Example 2, (6S)-3-[2,6-Difluoro-4-[2-(3-pyridyl)ethynyl]phenyl]-1-methyl-spiro[hexahydropyrimidine-6,1′-tetralin]-2,4-dione]
Emax [4]: 101%
EC50 [4]: 52 nM

SMILES: CN1C(=O)N(c2c(F)cc(C#Cc3ccccc3)cc2F)C(=O)C[C@]12CCCc1cnccc12 [Example 6, (5S)-3′-[2,6-Difluoro-4-(2-phenylethynyl)phenyl]-1′-methyl-spiro[7,8-dihydro-6H-isoquinoline-5,6′-hexahydropyrimidine]-2′,4′-dione]
Emax [4]: 115%
EC50 [4]: 65 nM

SMILES: CN1C(=O)N(c2c(F)cc(C#Cc3ccccc3)cc2F)C(=O)C[C@]12CCOc1ncccc12 [Example 9, (4S)-3′-[2,6-Difluoro-4-(2-phenylethynyl)phenyl]-1′-methyl-spiro[2,3-dihydropyrano[2,3-b]pyridine-4,6′-hexahydropyrimidine]-2′,4′-dione]
Emax [4]: 124%
EC50 [4]: 51 nM

SMILES: CN1C(=O)N(c2c(F)cc(C#Cc3ccccc3)cc2F)C(=O)C[C@]12CCCc1[nH]ncc12 [Example 12, (4S)-3′-[2,6-Difluoro-4-(2-phenylethynyl)phenyl]-1′-methyl-spiro[1,5,6,7-tetrahydroindazole-4,6′-hexahydropyrimidine]-2′,4′-dione]
Emax [4]: 152%
EC50 [4]: 51 nM

SMILES: CN1C(=O)N(c2c(F)cc(C#Cc3ccccc3)cc2F)C(=O)C[C@]12CCCc1nn(C)cc12 [Example 13, (4S)-3′-[2,6-Difluoro-4-(2-phenylethynyl)phenyl]-1′,2-dimethyl-spiro[6,7-dihydro-5H-indazole-4,6′-hexahydropyrimidine]-2′,4′-dione]
Emax [4]: 165%
EC50 [4]: 39 nM

Emax [4]: 151%
EC50 [4]: 75 nM
SMILES: CN1C(=O)N(c2c(F)cc(C#Cc3ccccc3)cc2F)C(=O)C[C@]12CCCc1c2cnn1C [Example 14, (4S)-3′-[2,6-Difluoro-4-(2-phenylethynyl)phenyl]-1,1′-dimethyl-spiro[6,7-dihydro-5H-indazole-4,6′-hexahydropyrimidine]-2′,4′-dione]

SMILES: CN1C(=O)N(c2c(F)cc(C#Cc3cccnc3)cc2F)C(=O)C[C@]12CCc1ccccc12 [Example 3, (6S)-3-[2,6-Difluoro-4-[2-(3-pyridyl)ethynyl]phenyl]-1-methyl-spiro[hexahydropyrimidine-6,1′-indane]-2,4-dione]
Emax [4]: 94%
EC50 [4]: 61 nM

SMILES: CN1C(=O)N(c2c(F)cc(C#Cc3cccnc3)cc2F)C(=O)C[C@]12COCc1ccccc12 [Example 10, (6S)-3-[2,6-Difluoro-4-[2-(3-pyridyl)ethynyl]phenyl]-1-methyl-spiro[hexahydropyrimidine-6,4′-isochromane]-2,4-dione]
Emax [4]: 118%
EC50 [4]: 43 nM

SMILES: CN1C(=O)N(c2c(F)cc(C#Cc3ccccc3)cc2F)C(=O)C[C@]12CCCc1ncccc12 [Example 5, (5S)-3′-[2,6-Difluoro-4-(2-phenylethynyl)phenyl]-1′-methyl-spiro[7,8-dihydro-6H-quinoline-5,6′-hexahydropyrimidine]-2′,4′-dione]
Emax [4]: 121%
EC50 [4]: 76 nM

SMILES: CN1C(=O)N(c2c(F)cc(C#Cc3ccccc3)cc2F)C(=O)C[C@]12CCCCc1c2cnn1C [Example 16, (4S)-3′-[2,6-Difluoro-4-(2-phenylethynyl)phenyl]-1,1′-dimethyl-spiro[5,6,7,8-tetrahydrocyclohepta[c]pyrazole-4,6′-hexahydropyrimidine]-2′,4′-dione]
Emax [4]: 137%
EC50 [4]: 34 nM

SMILES: CN1C(=O)N(c2c(F)cc(C#Cc3ccccc3)cc2F)C(=O)C[C@]12CCCCc1[nH]ncc12 [Example 15, (4S)-3′-[2,6-Difluoro-4-(2-phenylethynyl)phenyl]-1′-methyl-spiro[5,6,7,8-tetrahydro-1H-cyclohepta[c]pyrazole-4,6′-hexahydropyrimidine]-2′,4′-dione]
Emax [4]: 133%
EC50 [4]: 54 nM

SMILES: CN1C(=O)N(c2c(F)cc(C#Cc3ccccc3)cc2F)C(=O)C[C@]12CCCCc1nn(C)cc12 [Example 17, (4S)-3′-[2,6-Difluoro-4-(2-phenylethynyl)phenyl]-1′,2-dimethyl-spiro[5,6,7,8-tetrahydrocyclohepta[c]pyrazole-4,6′-hexahydropyrimidine]-2′,4′-dione]
Emax [4]: 131%
EC50 [4]: 39 nM

SMILES: CN1C(=O)N(c2c(F)cc(C#Cc3ccccc3)cc2F)C(=O)C[C@]12CCc1ncccc12 [Example 4, (5S)-3′-[2,6-Difluoro-4-(2-phenylethynyl)phenyl]-1′-methyl-spiro[6,7-dihydrocyclopenta[b]pyridine-5,6′-hexahydropyrimidine]-2′,4′-dione]
Emax [4]: 115%
EC50 [4]: 94 nM

SMILES: CN1C(=O)N(c2c(F)cc(C#Cc3ccccc3)cc2F)C(=O)C[C@]12CCCc1ncncc12 [Example 7, (5S)-3′-[2,6-Difluoro-4-(2-phenylethynyl)phenyl]-1′-methyl-spiro[7,8-dihydro-6H-quinazoline-5,6′-hexahydropyrimidine]-2′,4′-dione]
Emax [4]: 115%
EC50 [4]: 65 nM

SMILES: O=C(Nc1ccccc1)C12CC1/C(=N\O)c1ccccc1O2 (single isomer, unassigned; (-)) [(−)-PHCCC]
nigrostriatal degeneration [5]: reduced nigrostriatal degeneration

SMILES: N[C@@H](CCP(=O)(O)O)C(=O)O [L-AP4, (2S)-2-amino-4-phosphonobutanoic acid]
neuroprotective effects [6]: neuroprotective effects
